# According to ChEMBL document CHEMBL5357029, “Informatics and Computational Approaches for the Discovery and Optimization of Natural Product-Inspired Inhibitors of the SARS-CoV-2 2'-O-Methyltransferase” (J Nat Prod, 2024):
# Activity calls are given as the source filed them. The calls are words filed in the database; no cut-off is given here.
# Experiments:
# PBMC = test: Cytotoxicity against human PBMC cells assessed as inhibition of cell proliferation incubated for 2 to 4 days by CellTiter 96 non-radioactive cell proliferation assay; type: toxicity, cell-based; details: time 2-4 day
# [1] = (§1) Cytotoxicity against African green monkey Vero cells assessed as inhibition of cell proliferation incubated for 2 to 4 days by CellTiter 96 non-radioactive cell proliferation assay; type: toxicity, cell-based; details: chlorocebus sabaeus, Vero cells; time 2-4 day
# SARS-CoV-2 = test: Antiviral activity against SARS-CoV-2 USA-WA1/2020 infected in african green monkey Vero cells assessed as reduction in viral replication by qRT-PCR analysis; type: functional, organism-based; details: Severe acute respiratory syndrome coronavirus 2, USA-WA1/2020, Vero
# [2] = system: Severe acute respiratory syndrome coronavirus 2; test: Inhibition of SARS-CoV-2 nsp10/nsp16 2'-O-methyltransferase activity expressed in NiCo21 (DE3) cells using m7GpppAUUAA and S-adenosylmethionine as substrate at 10 uM incubated for 25 mins by luminescence based MTase Glo assay
# [3] = Inhibition of SARS-CoV-2 nsp10/nsp16 2'-O-methyltransferase activity expressed in NiCo21 (DE3) cells using m7GpppAUUAA and S-adenosylmethionine as substrate by filter binding assay; set-up: species or system Severe acute respiratory syndrome coronavirus 2
# Vero = test: as §1; type: toxicity, cell-based; details: chlorocebus sabaeus, vero; time 2-4 day
# [4] = Inhibition of SARS-CoV-2 nsp10 (1 to 139 residues)/nsp16 (1 to 298 residues) expressed in Escherichia coli BL21(DE3)RIL cells using RNA and [3H]SAM as substrate incubated for 1 hrs by SPA-based assay; set-up: species or system Severe acute respiratory syndrome coronavirus 2
Compound,CC50 (PBMC) [µM],CC50 [1] [µM],EC50 (SARS-CoV-2) [µM],inhibition [2],IC50 [3] [µM],CC50 (Vero) [µM],IC50 [4] [µM]
CCC(CC)COC(=O)[C@H](C)N[P@](=O)(OC[C@H]1O[C@@](C#N)(c2ccc3c(N)ncnn23)[C@H](O)[C@@H]1O)Oc1ccccc1,2,> 100,2.3,–,–,–,–
CC1=CC[C@H]2[C@H](C1)c1c(/C=C/c3ccc(O)cc3)cc(O)cc1OC2(C)C,60.4,–,4.7,Active,13.6,11.9,–
Nc1ncnc2c1ncn2[C@@H]1O[C@H](C[C@@H](N)CC[C@H](N)C(=O)O)[C@@H](O)[C@H]1O [SINEFUNGIN],–,–,–,Active,–,–,3.4
CC1=CC[C@H]2[C@H](C1)c1c(O)cc(/C=C/c3ccc(O)cc3)cc1OC2(C)C,53.4,–,7,Active,13.3,22.3,–
